Data on 49 compounds can be found in patent publication US8383637B2, “2-amino-quinazoline derivatives useful as inhibitors of β-secretase (BACE)” (Jansssen Pharmaceutica N.V., priority 2004, dated 2013).

For the test, the target named is T1, β-secretase(BACE) (Homo sapiens, UniProt P56817).
T1 construct: purchased Panvera
Put plainly: BACE Assay-1 (MCA-substrate, IC50). It counts as biochemical. To be noted: procedure of Example 158; read-out: IC50 μM (158). The method, then:
The following standards are reagents were used in this assay: Sodium Citrate trisodium salt dihydrate (Sigma), Citric Acid monohydrate (Merck), PEG8000 (Sigma), MCA-substrate (Bachem), β-secretase (BACE) (Panvera), 96-well plate zwart (Costar (Elscolab)), StatVal (Bachem).
The following standard assay buffer solution was prepared and used in this assay: 0.05 M, pH 5.0 mixture of sodium citrate trisodium salt dihydrate (9.56 g), citric acid monohydrate (3.68 g) and PEG8000 (0.50 g).
The MCA-substrate stock solution was prepared by mixing 10 mg MCA-substrate with 5 mL DMSO for a final solution concentration of 2.0 mg/mL. The substrate work solution was prepared by mixing 0.1 mL substrate in 1.90 mL assay buffer for a final concentration of 0.05 mM. The β-secretase (BACE) work solution was prepared by mixing 8 μL BACE in 2 mL assay buffer for a final concentration of 10 μg/mL.
The screen procedure for this assay was as follows. 60 μL of assay buffer was pippeted into each well of a 96-well plate. To each well was then pipetted 1 μL of test compound at the selected concentration. To each well was then added 20 μL of the β-secretase work solution and 20 μL of the MCA-substrate stock solution.
The procedure for the blank was as follows. 80 μL of assay buffer was pipetted into each well to be used as a blank control. To each well was then added 1 μL of DMSO and 20 μL of MCA-substrate solution in each well.
The procedure for the positive control was as follows. 60 μL of assay buffer was pipetted into each well to be used as a positive control. To each well was then added 1 μL of DMSO, 20 μL of BACE work solution and 20 μL of MCA-substrate stock solution.
For test compounds, measured at multiple concentrations, the measured T0 and T60 values were used to calculate an IC50 value using Graphpad Software (or PIR).

T1 sequence (P56817 46-501): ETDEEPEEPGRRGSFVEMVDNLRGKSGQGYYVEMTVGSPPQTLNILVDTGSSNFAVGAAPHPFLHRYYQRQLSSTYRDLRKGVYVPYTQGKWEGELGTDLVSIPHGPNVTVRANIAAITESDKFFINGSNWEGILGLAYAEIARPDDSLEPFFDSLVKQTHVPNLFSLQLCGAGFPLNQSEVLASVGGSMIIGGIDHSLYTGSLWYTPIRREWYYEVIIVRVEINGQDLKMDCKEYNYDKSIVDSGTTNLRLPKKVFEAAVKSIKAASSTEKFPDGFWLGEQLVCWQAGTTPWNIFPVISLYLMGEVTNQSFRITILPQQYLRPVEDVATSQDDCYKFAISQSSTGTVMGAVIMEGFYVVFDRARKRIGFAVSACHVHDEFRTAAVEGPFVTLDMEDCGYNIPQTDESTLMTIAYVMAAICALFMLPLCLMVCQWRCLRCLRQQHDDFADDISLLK

The term IC50 denotes the concentration at which inhibition is half-maximal. Turning to `CN(C(=O)CCN1Cc2cc(C(=O)c3ccccc3)ccc2N=C1N)C1CCCCCC1` [Compound 4], the IC50 turned out to be 2.5 µM.
With `CN(C(=O)CCN1Cc2cc(C(=O)c3ccc(F)cc3)ccc2N=C1N)C1CCCCCC1` [Compound 5] the figure was 5.1 µM.
`CCN(C(=O)CCN1Cc2cc(C(=O)c3ccc(F)cc3)ccc2N=C1N)C1CCCCC1` [Compound 6]: the concentration for half-maximal inhibition (IC50) was determined as 9.1 µM.
With `CN(C(=O)CCN1Cc2cc(C(=O)c3ccccc3)ccc2N=C1N)c1ccccc1` [Compound 13] the figure was 16 µM; with `COCCN1Cc2cc(C(=O)c3ccccc3)ccc2N=C1N` [Compound 18], 91 µM.
As for `CC(C)N(C)C(=O)CCN1Cc2cc(C(=O)c3ccccc3)ccc2N=C1N` [Compound 22], the figure is 12 µM; as for `CN(C(=O)CCN1Cc2cc(C(=O)c3ccccc3)ccc2N=C1N)C1CCCC1` [Compound 24], 1.8 µM.
As to `CN(C(=O)CCN1Cc2cc(C(=O)c3ccc(F)cc3)ccc2N=C1N)C1CCCC1` [Compound 25], the IC50 turned out to be 5.5 µM.
With `NC1=Nc2ccc(C(=O)c3ccccc3)cc2CN1CCCCC(=O)NC1CCCCC1` [Compound 31] the figure was 2.3 µM; with `CN(C(=O)CCN1Cc2cc(C(O)c3ccccc3)ccc2N=C1N)C1CCCCC1` (stereo not shown) [Compound 32, 3-[2-Amino-6-(hydroxy-phenyl-methyl)-4H-quinazolin-3-yl]-N-cyclohexyl-N-methyl-propionamide], 14 µM.
With `CN(C(=O)CCN1Cc2ccc(C(=O)c3ccccc3)cc2N=C1N)C1CCCCC1` [Compound 35], the IC50 is 33 µM.
On to `CN(C(=O)CCN1Cc2cc(Cc3ccccc3)ccc2N=C1N)C1CCCCC1` [Compound 36, 3-(2-Amino-6-benzyl-4H-quinazolin-3-yl)-N-cyclohexyl-N-methyl-propionamide], for which the IC50 is 2.3 µM.
With `CN(C(=O)CCN1Cc2cc(-c3noc4cc(F)ccc34)ccc2N=C1N)C1CCCCC1` [Compound 37] the figure was 12 µM; with `NC1=Nc2ccc(C(=O)c3ccccc3)cc2CN1CCC(=O)N(C1CCCCC1)C1CCCCC1` [Compound 39], 1.3 µM.
As to `CN(CCc1ccccc1)C(=O)CCN1Cc2cc(C(=O)c3ccccc3)ccc2N=C1N` [Compound 40], the IC50 turned out to be 9.8 µM.
With `CN(C(=O)CCN1Cc2cc(C(=O)c3ccccc3)ccc2N=C1N)C12CC3CC(CC(C3)C1)C2` [Compound 41] the figure was 5.1 µM.
As for `CN(Cc1cccc2ccccc12)C(=O)CCN1Cc2cc(C(=O)c3ccccc3)ccc2N=C1N` [Compound 42], the figure is 15 µM; as for `CN(Cc1ccccc1)C(=O)CCN1Cc2cc(C(=O)c3ccccc3)ccc2N=C1N` [Compound 43], 7.2 µM; as for `CN(C(=O)CCN1Cc2cc(C(=O)c3ccccc3)ccc2N=C1N)C1CCCc2ccccc21` (stereo not shown) [Compound 45], 2.7 µM.
With `CN(Cc1ccccc1)C(=O)CCCCN1Cc2cc(C(=O)c3ccccc3)ccc2N=C1N` [Compound 47] the figure was 4.2 µM; with `CN(C(=O)CCCCN1Cc2cc(C(=O)c3ccccc3)ccc2N=C1N)C12CC3CC(CC(C3)C1)C2` [Compound 48], 4 µM; with `CN(C(=O)CCCCN1Cc2cc(C(=O)c3ccccc3)ccc2N=C1N)C1CCCc2ccccc21` (stereo not shown) [Compound 54], 2.3 µM.
`CN(C1CCCCC1)S(=O)(=O)CCN1Cc2cc(C(=O)c3ccccc3)ccc2N=C1N` [Compound 57, 2-(2-Amino-6-benzoyl-4H-quinazolin-3-yl)-ethanesulfonic acid cyclohexyl-methyl-amide]: the IC50 stood at 1.4 µM.
As for `CCCN1Cc2cc(Oc3cccc(NC(=O)c4ccccc4)c3)ccc2N=C1N` [Compound 60], the figure is 5.6 µM; as for `CN(C1CCCCC1)S(=O)(=O)CCN1Cc2cc(Oc3cccc(NC(=O)OCc4ccccc4)c3)ccc2N=C1N` [Compound 71], 2.6 µM; as for `NC1=Nc2ccc(Oc3cccc(NC(=O)OCc4ccccc4)c3)cc2CN1CCCCC(=O)N(C1CCCCC1)C1CCCCC1` [Compound 75], 0.66 µM.
With `NC1=Nc2ccc(Oc3cccc(NCC4CCCCC4)c3)cc2CN1CCCCO` [Compound 95] the figure was 0.31 µM; with `CN(C(=O)CCCCN1Cc2cc(Oc3cccc(NCC4CCCCC4)c3)ccc2N=C1N)C1CCCCC1` [Compound 96], 0.78 µM.
With `NC1=Nc2ccc(Oc3cccc(NS(=O)(=O)c4ccccc4)c3)cc2CN1CCCCO` [Compound 126] the figure was 0.24 µM.
Regarding `CN(C(=O)CCCCN1Cc2cc(Oc3cccc(NC(=O)OCc4ccccc4)c3)ccc2N=C1N)C1CCCCC1` [Compound 133], the IC50 stood at 0.15 µM.
With `CCCN1Cc2cc(OCc3cccc(NS(=O)(=O)c4ccccc4)c3)ccc2N=C1N` [Compound 203] the figure was 4.7 µM; with `CCCN1Cc2cc(Oc3cccc(NS(C)(=O)=O)c3)ccc2N=C1N` [Compound 237], more than 10 µM.
Turning to `CCCN1Cc2cc(Oc3cccc(NS(=O)(=O)C(C)C)c3)ccc2N=C1N` [Compound 238], the 50% inhibitory concentration (IC50) came out at 8.9 µM.
For `CCCCS(=O)(=O)Nc1cccc(Oc2ccc3c(c2)CN(CCC)C(N)=N3)c1` [Compound 239], the IC50 amounted to 0.35 µM.
With `CCCN1Cc2cc(Oc3cccc(NS(=O)(=O)c4ccsc4)c3)ccc2N=C1N` [Compound 240] the figure was 0.89 µM; with `CCCN1Cc2cc(Oc3cccc(NS(=O)(=O)c4cccs4)c3)ccc2N=C1N` [Compound 241], 0.49 µM.
As for `CCCN1Cc2cc(Oc3cccc(NS(=O)(=O)c4c(C)noc4C)c3)ccc2N=C1N` [Compound 242], the figure is more than 10 µM; as for `CCCN1Cc2cc(Oc3cccc(NS(=O)(=O)c4c(C)cc(C)cc4C)c3)ccc2N=C1N` [Compound 243], 0.033 µM.
As for `CCCN1Cc2cc(Oc3cccc(NS(=O)(=O)c4ccc5ccccc5c4)c3)ccc2N=C1N` [Compound 244], the figure is 2.1 µM; as for `CCCN1Cc2cc(Oc3cccc(NS(=O)(=O)c4csc5ccccc45)c3)ccc2N=C1N` [Compound 245], 0.17 µM; as for `CCCN1Cc2cc(Oc3cccc(NS(=O)(=O)c4ccc(NC(C)=O)cc4)c3)ccc2N=C1N` [Compound 246], more than 10 µM.
Take `CCCN1Cc2cc(Oc3cccc(NS(=O)(=O)c4cc(OC)ccc4OC)c3)ccc2N=C1N` [Compound 248]: the IC50 is 6.9 µM.
Turning to `CCCN1Cc2cc(Oc3cccc(NS(=O)(=O)c4ccc(OC)c(OC)c4)c3)ccc2N=C1N` [Compound 249], the IC50 is 5.2 µM.
With `CCCN1Cc2cc(Oc3cccc(NS(=O)(=O)c4ccccc4S(C)(=O)=O)c3)ccc2N=C1N` [Compound 250] the figure was more than 10 µM; with `CCCN1Cc2cc(Oc3cccc(NS(=O)(=O)c4ccc(-c5ccccn5)s4)c3)ccc2N=C1N` [Compound 251], more than 10 µM; with `CCCN1Cc2cc(Oc3cccc(NS(=O)(=O)c4cccc(OC(F)(F)F)c4)c3)ccc2N=C1N` [Compound 252], 1 µM.
As for `CCCN1Cc2cc(Oc3cccc(NS(=O)(=O)c4cccc5c(N(C)C)cccc45)c3)ccc2N=C1N` [Compound 253], the figure is more than 10 µM; as for `CCCN1Cc2cc(Oc3cccc(NS(=O)(=O)c4ccc(-c5csc(C)n5)s4)c3)ccc2N=C1N` [Compound 254], more than 10 µM.
As for `CCCN1Cc2cc(Oc3cccc(NS(=O)(=O)c4ccc(-c5cc(C(F)(F)F)on5)s4)c3)ccc2N=C1N` [Compound 255], the figure is more than 10 µM.
